Our source for the Ki values is patent US20150031674A1, “SERINE/THREONINE KINASE INHIBITORS” (GENENTECH, INC., priority 2013, published 2015).

SMILES strings stand for the structures.

Sequence of human recombinant PAK1-KD protein (Q13153 270-521 limits assumed): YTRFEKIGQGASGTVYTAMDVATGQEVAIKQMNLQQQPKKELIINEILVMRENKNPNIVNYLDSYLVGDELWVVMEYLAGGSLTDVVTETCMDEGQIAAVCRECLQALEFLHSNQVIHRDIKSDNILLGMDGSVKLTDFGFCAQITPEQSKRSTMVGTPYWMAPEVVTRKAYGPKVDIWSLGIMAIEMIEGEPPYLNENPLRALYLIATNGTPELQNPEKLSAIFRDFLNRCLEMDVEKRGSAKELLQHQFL

The assay addresses human recombinant PAK1-KD protein (Homo sapiens, UniProt Q13153). In words: PAK1-KD (Kinase Domain) IC50 Zlyte Assay (FRET peptide substrate phosphorylation). The following applies: Z'-LYTE, Biological Example 1.
For orientation: Ki means a measure of affinity in units of concentration, obtained from inhibition or displacement. In the case of `CCNc1ncc2cc(-c3ccc(-c4cncc(C)n4)cc3Cl)c(=O)n(CC[C@H](O)CO)c2n1` [Example I-83, (S)-6-(2-Chloro-4-(6-methylpyrazin-2-yl)phenyl)-8-(3,4-dihydroxybutyl)-2-(ethylamino)pyrido[2,3-d]pyrimidin-7(8H)-one], the inhibitory constant (Ki) was found to be 107 nM.

Consider `CNc1ncc2cc(-c3ccc(-c4cccc(C)n4)cc3Cl)c(=O)n(CC(=O)N3CCNCC3)c2n1` [Example I-107, 6-[2-Chloro-4-(6-methyl-2-pyridyl)phenyl]-2-(methylamino)-8-(2-oxo-2-piperazin-1-yl-ethyl)pyrido[2,3-d]pyrimidin-7-one], for which the Ki was 14.3 nM.

`CNc1ncc2cc(-c3ccc(-c4csc(C)n4)cc3Cl)c(=O)n(CCCN)c2n1` [Example I-140, 8-(3-aminopropyl)-6-[2-chloro-4-(2-methylthiazol-4-yl)phenyl]-2-(methylamino)pyrido[2,3-d]pyrimidin-7-one]: the inhibition constant (Ki) was determined as 8.06 nM.

As to `CCc1cc(-c2cccc(C)n2)ccc1-c1cc2cnc(NC3COC3)nc2n(CC[C@H]2OC[C@H](N)CO2)c1=O` [Example I-198, 8-[2-(5-Amino-1,3-dioxan-2-yl)ethyl]-6-[2-ethyl-4-(6-methyl-2-pyridyl)phenyl]-2-(oxetan-3-ylamino)pyrido[2,3-d]pyrimidin-7-one], the Ki stood at 1.2 nM.

For `CCNc1ncc2cc(-c3ccc(-c4cncc(C)n4)cc3Cl)c(=O)n(CCC(O)CO)c2n1` (stereo in doubt) [Example I-79, (R)-6-(2-Chloro-4-(6-methylpyrazin-2-yl)phenyl)-8-(3,4-dihydroxybutyl)-2-(ethylamino)pyrido[2,3-d]pyrimidin-7(8H)-one], the Ki is 43.5 nM.

With `CCNc1ncc2cc(-c3ccc(-c4cccc(C)n4)cc3C)c(=O)n(CCCC(=O)NC)c2n1` [Example I-74, 4-[2-(Ethylamino)-6-[2-methyl-4-(6-methyl-2-pyridyl)phenyl]-7-oxo-pyrido[2,3-d]pyrimidin-8-yl]-N-methyl-butanamide], the Ki amounted to 15.5 nM.

For the molecule `CNc1ncc2cc(-c3ccc(-c4cccc(C)n4)cc3C)c(=O)n(CC3C4CN(C)CC43)c2n1` (centres unmarked) [Example I-186, 2-(methylamino)-8-[(3-methyl-3-azabicyclo[3.1.0]hexan-6-yl)methyl]-6-[2-methyl-4-(6-methyl-2-pyridyl)phenyl]pyrido[2,3-d]pyrimidin-7-one], the inhibition constant (Ki) turned out to be 11.9 nM.

`CCNc1ncc2cc(-c3ccc(-c4cncc(C)n4)cc3Cl)c(=O)n(CC[C@@H]3[C@H]4CNC[C@@H]34)c2n1` [Example I-65, 8-(2-((1R,5S,6s)-3-Azabicyclo[3.1.0]hexan-6-yl)ethyl)-6-(2-chloro-4-(6-methylpyrazin-2-yl)phenyl)-2-(ethylamino)pyrido[2,3-d]pyrimidin-7(8H)-one]: the Ki worked out at 14.5 nM.

Turning to `CNc1ncc2cc(-c3ccc(-c4cccc(C)n4)cc3Cl)c(=O)n(C[C@@H]3CNCCO3)c2n1` [Example I-173, 6-[2-chloro-4-(6-methyl-2-pyridyl)phenyl]-2-(methylamino)-8-[[(2S)-morpholin-2-yl]methyl]pyrido[2,3-d]pyrimidin-7-one], the Ki turned out to be 12.9 nM.

With `Cc1cncc(-c2ccc(-c3cc4cnc(NC5COC5)nc4n(CCCC(N)=O)c3=O)c(Cl)c2)n1` [Example I-55, 4-[6-[2-Chloro-4-(6-methylpyrazin-2-yl)phenyl]-2-(oxetan-3-ylamino)-7-oxo-pyrido[2,3-d]pyrimidin-8-yl]butanamide], the inhibition constant (Ki) came out at 29.8 nM.

Take `CNC(=O)CCCn1c(=O)c(-c2ccc(-c3cccc(C)n3)cc2C)cc2cnc(NC3COC3)nc21` [Example I-87, N-methyl-4-[6-[2-methyl-4-(6-methyl-2-pyridyl)phenyl]-2-(oxetan-3-ylamino)-7-oxo-pyrido[2,3-d]pyrimidin-8-yl]butanamide]: the Ki came to 30.5 nM.

In the case of `CNc1ncc2cc(-c3ccc(-c4cncc(C)n4)cc3Cl)c(=O)n(CC(=O)N3CC[C@@H](N)C3)c2n1` [Example I-152, 8-[2-[(3R)-3-Aminopyrrolidin-1-yl]-2-oxo-ethyl]-6-[2-chloro-4-(6-methylpyrazin-2-yl)phenyl]-2-(methylamino)pyrido[2,3-d]pyrimidin-7-one], the Ki turned out to be 21.1 nM.

As for `CNc1ncc2cc(-c3ccc(-c4cncc(C)n4)cc3Cl)c(=O)n(CC(=O)N[C@H]3CCNC3)c2n1` [Example I-142, 2-[6-[2-chloro-4-(6-methylpyrazin-2-yl)phenyl]-2-(methylamino)-7-oxo-pyrido[2,3-d]pyrimidin-8-yl]-N-[(3S)-pyrrolidin-3-yl]acetamide], the Ki was determined as 14 nM.

In the case of `CCNc1ncc2cc(-c3ccc(-c4cncc(C)n4)cc3Cl)c(=O)n(CC3CCN(CCO)CC3)c2n1` [Example I-39, 6-(2-Chloro-4-(6-methylpyrazin-2-yl)phenyl)-2-(ethylamino)-8-((1-(2-hydroxyethyl)piperidin-4-yl)methyl)pyrido[2,3-d]pyrimidin-7(8H)-one], the inhibition constant (Ki) is 40 nM.

On to `CCNc1ncc2cc(-c3ccc(-c4cccc(C)n4)cc3Cl)c(=O)n(CCN3CCNCC3)c2n1` [Example I-66, 6-(2-Chloro-4-(6-methylpyridin-2-yl)phenyl)-2-(ethylamino)-8-(2-(piperazin-1-yl)ethyl)pyrido[2,3-d]pyrimidin-7(8H)-one], for which the inhibitory constant (Ki) is 0.9 nM.

`CNc1ncc2cc(-c3ccc(-c4cccc(C)n4)cc3Cl)c(=O)n(CS(=O)(=O)N3CCNCC3)c2n1` [Example I-162, 6-[2-chloro-4-(6-methyl-2-pyridyl)phenyl]-2-(methylamino)-8-(piperazin-1-ylsulfonylmethyl)pyrido[2,3-d]pyrimidin-7-one]: the Ki came to 14.7 nM.

Regarding `Cc1cccc(-c2ccc(-c3cc4cnc(NC5COC5)nc4n(CCOCCN)c3=O)c(Cl)c2)n1` [Example I-63, 8-[2-(2-Aminoethoxy)ethyl]-6-[2-chloro-4-(6-methyl-2-pyridyl)phenyl]-2-(oxetan-3-ylamino)pyrido[2,3-d]pyrimidin-7-one], the inhibitory constant (Ki) was determined as 0.3 nM.

Take `CNc1ncc2cc(-c3ccc(-c4cccc(C)n4)cc3Cl)c(=O)n(CCS(=O)(=O)N3CCNCC3)c2n1` [Example I-141, 6-[2-chloro-4-(6-methyl-2-pyridyl)phenyl]-2-(methylamino)-8-(2-piperazin-1-ylsulfonylethyl)pyrido[2,3-d]pyrimidin-7-one]: the Ki stood at 4 nM.

For `Cc1cncc(-c2ccc(-c3cc4cnc(NC5COC5)nc4n(C[C@H]4CNCCO4)c3=O)c(Cl)c2)n1` [Example I-146, 6-[2-Chloro-4-(6-methylpyrazin-2-yl)phenyl]-8-[[(2R)-morpholin-2-yl]methyl]-2-(oxetan-3-ylamino)pyrido[2,3-d]pyrimidin-7-one], the inhibitory constant (Ki) worked out at 10.7 nM.

As for `CNc1ncc2cc(-c3ccc(-c4cncc(C)n4)cc3Cl)c(=O)n(CCC3CNC(=O)C3)c2n1` (centres unmarked) [Example I-109, 6-[2-Chloro-4-(6-methylpyrazin-2-yl)phenyl]-2-(methylamino)-8-[2-(5-oxopyrrolidin-3-yl)ethyl]pyrido[2,3-d]pyrimidin-7-one], the inhibition constant (Ki) stood at 43.3 nM.

With `CCNc1ncc2cc(-c3ccc(-c4cncc(C)n4)cc3Cl)c(=O)n(C3COC4(CCNCC4)C3)c2n1` (centres unmarked) [Example I-59, 6-(2-Chloro-4-(6-methylpyrazin-2-yl)phenyl)-2-(ethylamino)-8-(1-oxa-8-azaspiro[4.5]decan-3-yl)pyrido[2,3-d]pyrimidin-7(8H)-one], the Ki turned out to be 24.4 nM.

Turning to `CNc1ncc2cc(-c3ccc(-c4nc(C)cs4)cc3Cl)c(=O)n(C[C@H]3CNCCO3)c2n1` [Example I-189, 6-[2-chloro-4-(4-methylthiazol-2-yl)phenyl]-2-(methylamino)-8-[[(2R)-morpholin-2-yl]methyl]pyrido[2,3-d]pyrimidin-7-one], the inhibitory constant (Ki) was 25.8 nM.

Consider `Cc1cccc(-c2ccc(-c3cc4cnc(NC5COC5)nc4n(CCC4CNCCO4)c3=O)c(C)c2)n1` (single isomer, unassigned) [Example I-113, 6-(2-Methyl-4-(6-methylpyridin-2-yl)phenyl)-8-(2-(morpholin-2-yl)ethyl)-2-(oxetan-3-ylamino)pyrido[2,3-d]pyrimidin-7(8H)-one], for which the Ki came to 1.7 nM.

As for `Cc1cccc(-c2ccc(-c3cc4cnc(NC5COC5)nc4n(CCCO)c3=O)c(C)c2)n1` [Example I-168, 8-(3-hydroxypropyl)-6-[2-methyl-4-(6-methyl-2-pyridyl)phenyl]-2-(oxetan-3-ylamino)pyrido[2,3-d]pyrimidin-7-one], the inhibitory constant (Ki) was 15.7 nM.

Turning to `CCNc1ncc2cc(-c3ccc(-c4cncc(C)n4)cc3Cl)c(=O)n(C(C)COC3CNC3)c2n1` (single isomer, unassigned) [Example I-118, 8-[2-(azetidin-3-yloxy)-1-methyl-ethyl]-6-[2-chloro-4-(6-methylpyrazin-2-yl)phenyl]-2-(ethylamino)pyrido[2,3-d]pyrimidin-7-one], the Ki stood at 18.3 nM.

In the case of `CCNc1ncc2cc(-c3ccc(-c4cncc(C)n4)cc3Cl)c(=O)n(CCN3CCNC(=O)C3)c2n1` [Example I-130, 6-[2-chloro-4-(6-methylpyrazin-2-yl)phenyl]-2-(ethylamino)-8-[2-(3-oxopiperazin-1-yl)ethyl]pyrido[2,3-d]pyrimidin-7-one], the Ki stood at 52.2 nM.

For `CNc1ncc2cc(-c3ccc(-c4cccc(C)n4)cc3C)c(=O)n(C[C@@H]3CNCCO3)c2n1` [Example I-171, 6-(2-methyl-4-(6-methylpyridin-2-yl)phenyl)-2-(methylamino)-8-[[(2S)-morpholin-2-yl]methyl]pyrido[2,3-d]pyrimidin-7(8H)-one], the inhibition constant (Ki) was 5 nM.

Regarding `CCNc1ncc2cc(-c3ccc(-c4cncc(C)n4)cc3Cl)c(=O)n(CC(=O)N3CCOCC3)c2n1` [Example I-26, 6-[2-chloro-4-(6-methylpyrazin-2-yl)phenyl]-2-(ethylamino)-8-(2-morpholino-2-oxo-ethyl)pyrido[2,3-d]pyrimidin-7-one], the Ki came to 137 nM.

Turning to `CNc1ncc2cc(-c3ccc(-c4cccc(C)n4)cc3Cl)c(=O)n(CCC3CNCCO3)c2n1` (single isomer, unassigned) [Example I-124, 6-(2-Chloro-4-(6-methylpyridin-2-yl)phenyl)-2-(methylamino)-8-(2-(morpholin-2-yl)ethyl)pyrido[2,3-d]pyrimidin-7(8H)-one], the Ki came out at 1.5 nM.
